PubChem BioAssay (NCI)
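Interpolation was linear, between the two tested concentrations surrounding the appropriate level; five concentrations were tested over 48 hours in 96-well plates. GI50 is the concentration that inhibits growth by half. TGI is the concentration that stops growth completely.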

How the values were obtained:
Assay in all cases: NCI anticancer screen, dose series, 48 h
A498 renal = system: A498 renal
CAKI-1 renal = system: CAKI-1 renal
KM12 colon = system: KM12 colon
MALME-3M melanoma = system: MALME-3M melanoma
MOLT-4 leukemia = system: MOLT-4 leukemia
NCI-H226 lung = system: NCI-H226 lung
NCI-H23 lung = system: NCI-H23 lung
OVCAR-5 ovarian = system: OVCAR-5 ovarian
T-47D breast = system: T-47D breast
UO-31 renal = system: UO-31 renal

Compound | GI50 (A498 renal) | TGI (A498 renal) | GI50 (CAKI-1 renal) | TGI (CAKI-1 renal) | GI50 (KM12 colon) | TGI (KM12 colon) | GI50 (MALME-3M melanoma) | TGI (MALME-3M melanoma) | GI50 (MOLT-4 leukemia) | TGI (MOLT-4 leukemia) | GI50 (NCI-H226 lung) | TGI (NCI-H226 lung) | GI50 (NCI-H23 lung) | TGI (NCI-H23 lung) | GI50 (OVCAR-5 ovarian) | TGI (OVCAR-5 ovarian) | GI50 (T-47D breast) | TGI (T-47D breast) | GI50 (UO-31 renal) | TGI (UO-31 renal)
CN(C)CCNc1cc(-c2ccccc2)nc2ccccc12 | 2.01 µM | 13.6 µM | 6.56 µM | 40.9 µM | 4.87 µM | 27.4 µM | 12.6 µM | 27.7 µM | 3.27 µM | 11.6 µM | 5.98 µM | 30.2 µM | 11.2 µM | 37.6 µM | 5.9 µM | 36.8 µM | 8.79 µM | 37.2 µM | 4.01 µM | 26.9 µM
Cc1cc(N(CCOS(C)(=O)=O)CCOS(C)(=O)=O)ccc1C=Nc1ccc(-c2nc(Cc3ccccc3)sc2C)cc1 | – | 6.39 µM | – | 9.2 µM | – | 34 µM | – | 26.8 µM | – | 22.4 µM | – | 22.6 µM | – | 17.8 µM | – | 37.8 µM | – | 23.8 µM | – | 18.3 µM
O=c1oc2ccc(F)cc2c(=O)n1-c1ccc(F)cc1F | 1.62 µM | 3.91 µM | 1.98 µM | 6.4 µM | 3.38 µM | 14 µM | 2.25 µM | 6.33 µM | 3.46 µM | > 100 µM | 2.82 µM | 72.9 µM | 2.96 µM | 19.7 µM | 3.46 µM | > 100 µM | 2.28 µM | 7.08 µM | 1.93 µM | 6.56 µM
COc1ccc(C2=NN(C(=O)c3cc(OC)c(OC)c(OC)c3)C(c3ccc(C#N)cc3)C2)cc1OC (stereo not given) | 0.374 µM | 4.34 µM | 0.412 µM | 7.15 µM | 1.16 µM | > 27.3 µM | 14.6 µM | > 78.9 µM | 4.27 µM | > 100 µM | 2.84 µM | > 55.3 µM | 3.07 µM | > 74 µM | 5.24 µM | > 100 µM | 3.64 µM | 97.6 µM | 0.439 µM | 17.4 µM
COc1cc(OC)cc(-c2ccc(-c3ccc(C(=N)N)o3)o2)c1 | 2.89 µM | 15.3 µM | 4.33 µM | 16.1 µM | 2.45 µM | 6.56 µM | 2.04 µM | 4.21 µM | 2.44 µM | 6.7 µM | 22.6 µM | 44.6 µM | 9.25 µM | 22.3 µM | 2.34 µM | 5.25 µM | 2.08 µM | 5.04 µM | 2.67 µM | 9.16 µM
CN1CCN(Cc2ccc(NC(=O)c3cncc(C#Cc4cnc(N)c5ccc(C#N)cc45)c3)cc2C(F)(F)F)CC1 | 0.0208 µM | 0.478 µM | 0.0175 µM | 0.206 µM | 0.005 µM | 0.603 µM | 0.0134 µM | 0.0943 µM | 0.028 µM | 1.4 µM | 0.0698 µM | 0.864 µM | 0.172 µM | 1.27 µM | 0.211 µM | 0.986 µM | 0.247 µM | 2.03 µM | 0.0809 µM | 0.565 µM
O=C(NCCOCCOCCNc1cccc2c1C(=O)N(C1CCCNC1=O)C2=O)c1cc2c(o1)C(=O)c1ccccc1C2=O (stereo not given) | 1.77 µM | 3.21 µM | 2.75 µM | 9.3 µM | 2.91 µM | 10 µM | 0.176 µM | 0.401 µM | 2.4 µM | 6.01 µM | 1.78 µM | 3.95 µM | 0.313 µM | 1.79 µM | 1.77 µM | 3.19 µM | 2.53 µM | 8.81 µM | 2.03 µM | 4.9 µM
